Measured values: ChEMBL document CHEMBL1131884, “Dicationic 2-fluorenonylcarbapenems: potent anti-MRS agents with improved solubility and pharmacokinetic properties” (Bioorg Med Chem Lett, 1999)

system: Staphylococcus sp.; test: Antibacterial activity against methicillin-resistant coagulase negative Staphylococci (MRCNS); type: functional

Structure (SMILES) | MIC50 | MIC90
CC(=O)c1cccc(NC(=O)C[N+]23CC[N+](Cc4ccc5c(c4)C(=O)c4ccc(C6=C(C(=O)O)N7C(=O)[C@H]([C@@H](C)O)[C@H]7[C@H]6C)cc4-5)(CC2)CC3)c1.[Cl-].[Cl-] | 1 µg/mL | 4 µg/mL
C[C@@H](O)[C@H]1C(=O)N2C(C(=O)O)=C(c3ccc4c(c3)-c3ccc(C[N+]56CC[N+](CC(=O)Nc7ccccc7)(CC5)CC6)cc3C4=O)C[C@H]12.[Cl-].[Cl-] | 1 µg/mL | 1 µg/mL
COc1ccc(NC(=O)C[N+]23CC[N+](Cc4ccc5c(c4)C(=O)c4ccc(C6=C(C(=O)O)N7C(=O)[C@H]([C@@H](C)O)[C@H]7[C@H]6C)cc4-5)(CC2)CC3)cc1.[Cl-].[Cl-] | 1 µg/mL | 4 µg/mL
C[C@@H](O)[C@H]1C(=O)N2C(C(=O)O)=C(c3ccc4c(c3)-c3ccc(C[N+]56CC[N+](CCCO)(CC5)CC6)cc3C4=O)[C@H](C)[C@H]12.[Cl-].[Cl-] | 4 µg/mL | 8 µg/mL
CNC(=O)C[N+]12CC[N+](Cc3ccc4c(c3)C(=O)c3ccc(C5=C(C(=O)O)N6C(=O)[C@H]([C@@H](C)O)[C@H]6[C@H]5C)cc3-4)(CC1)CC2.[Cl-].[Cl-] | 4 µg/mL | 8 µg/mL
CC(=O)c1ccc(NC(=O)C[N+]23CC[N+](Cc4ccc5c(c4)C(=O)c4ccc(C6=C(C(=O)O)N7C(=O)[C@H]([C@@H](C)O)[C@H]7[C@H]6C)cc4-5)(CC2)CC3)cc1.[Cl-].[Cl-] | 1 µg/mL | 4 µg/mL
C[C@@H](O)[C@H]1C(=O)N2C(C(=O)O)=C(c3ccc4c(c3)-c3ccc(C[N+]56CC[N+](CC(=O)Nc7cccc(C(N)=O)c7)(CC5)CC6)cc3C4=O)[C@H](C)[C@H]12.[Cl-].[Cl-] | 1 µg/mL | 2 µg/mL
C[C@@H](O)[C@H]1C(=O)N2C(C(=O)O)=C(c3ccc4c(c3)-c3ccc(C[N+]56CC[N+](CC#N)(CC5)CC6)cc3C4=O)C[C@H]12.[Cl-].[Cl-] | 2 µg/mL | 4 µg/mL
C[C@@H](O)[C@H]1C(=O)N2C(C(=O)O)=C(c3ccc4c(c3)-c3ccc(C[N+]56CC[N+](CC(=O)NCc7ccccc7)(CC5)CC6)cc3C4=O)[C@H](C)[C@H]12.[Cl-].[Cl-] | 1 µg/mL | 4 µg/mL
C[C@@H](O)[C@H]1C(=O)N2C(C(=O)O)=C(c3ccc4c(c3)-c3ccc(C[N+]56CC[N+](C)(CC5)CC6)cc3C4=O)[C@H](C)[C@H]12.[Cl-].[Cl-] | 4 µg/mL | 8 µg/mL
C[C@@H](O)[C@H]1C(=O)N2C(C(=O)O)=C(c3ccc4c(c3)-c3ccc(C[N+]56CC[N+](CC(=O)Nc7cccc(CO)c7)(CC5)CC6)cc3C4=O)[C@H](C)[C@H]12.[Cl-].[Cl-] | 1 µg/mL | 4 µg/mL
C[C@@H](O)[C@H]1C(=O)N2C(C(=O)O)=C(c3ccc4c(c3)-c3ccc(C[N+]56CC[N+](C)(CC5)CC6)cc3C4=O)C[C@H]12.[Cl-].[Cl-] | 2 µg/mL | 4 µg/mL

biological target: T1, MecA (Staphylococcus aureus, UniProt Q7DHH4); test: Binding affinity against PBP2a receptor by competition analysis with [3H]benzylpenicillin using cell membrane fractions from the MRSA COL strain.
T1 sequence (Q7DHH4 whole entry): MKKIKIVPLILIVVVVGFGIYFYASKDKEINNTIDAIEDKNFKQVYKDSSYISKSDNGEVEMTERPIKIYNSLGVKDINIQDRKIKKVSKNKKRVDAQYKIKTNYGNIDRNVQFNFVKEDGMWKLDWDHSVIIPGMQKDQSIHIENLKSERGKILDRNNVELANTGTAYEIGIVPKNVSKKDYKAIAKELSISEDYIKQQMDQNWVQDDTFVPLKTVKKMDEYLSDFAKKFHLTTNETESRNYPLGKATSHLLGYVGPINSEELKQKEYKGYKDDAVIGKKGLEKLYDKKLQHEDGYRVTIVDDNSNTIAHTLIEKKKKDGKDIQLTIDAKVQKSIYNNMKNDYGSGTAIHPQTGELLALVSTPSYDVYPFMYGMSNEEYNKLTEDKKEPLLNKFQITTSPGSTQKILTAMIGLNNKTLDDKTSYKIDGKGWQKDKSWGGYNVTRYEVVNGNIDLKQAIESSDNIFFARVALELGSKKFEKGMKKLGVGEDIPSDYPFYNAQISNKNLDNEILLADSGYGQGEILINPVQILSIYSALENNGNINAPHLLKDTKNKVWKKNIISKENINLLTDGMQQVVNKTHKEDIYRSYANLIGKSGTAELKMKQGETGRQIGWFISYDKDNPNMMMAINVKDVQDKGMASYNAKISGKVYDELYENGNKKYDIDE

Structure (SMILES) | IC50
CC(=O)c1cccc(NC(=O)C[N+]23CC[N+](Cc4ccc5c(c4)C(=O)c4ccc(C6=C(C(=O)O)N7C(=O)[C@H]([C@@H](C)O)[C@H]7[C@H]6C)cc4-5)(CC2)CC3)c1.[Cl-].[Cl-] | 1290 nM
C[C@@H](O)[C@H]1C(=O)N2C(C(=O)O)=C(c3ccc4c(c3)-c3ccc(C[N+]56CC[N+](CC(=O)Nc7ccccc7)(CC5)CC6)cc3C4=O)C[C@H]12.[Cl-].[Cl-] | 468 nM
COc1ccc(NC(=O)C[N+]23CC[N+](Cc4ccc5c(c4)C(=O)c4ccc(C6=C(C(=O)O)N7C(=O)[C@H]([C@@H](C)O)[C@H]7[C@H]6C)cc4-5)(CC2)CC3)cc1.[Cl-].[Cl-] | 1190 nM
C[C@@H](O)[C@H]1C(=O)N2C(C(=O)O)=C(c3ccc4c(c3)-c3ccc(C[N+]56CC[N+](CCCO)(CC5)CC6)cc3C4=O)[C@H](C)[C@H]12.[Cl-].[Cl-] | 729 nM
CNC(=O)C[N+]12CC[N+](Cc3ccc4c(c3)C(=O)c3ccc(C5=C(C(=O)O)N6C(=O)[C@H]([C@@H](C)O)[C@H]6[C@H]5C)cc3-4)(CC1)CC2.[Cl-].[Cl-] | 502 nM
CC(=O)c1ccc(NC(=O)C[N+]23CC[N+](Cc4ccc5c(c4)C(=O)c4ccc(C6=C(C(=O)O)N7C(=O)[C@H]([C@@H](C)O)[C@H]7[C@H]6C)cc4-5)(CC2)CC3)cc1.[Cl-].[Cl-] | 3150 nM
C[C@@H](O)[C@H]1C(=O)N2C(C(=O)O)=C(c3ccc4c(c3)-c3ccc(C[N+]56CC[N+](CC(=O)Nc7cccc(C(N)=O)c7)(CC5)CC6)cc3C4=O)[C@H](C)[C@H]12.[Cl-].[Cl-] | 1220 nM
C[C@@H](O)[C@H]1C(=O)N2C(C(=O)O)=C(c3ccc4c(c3)-c3ccc(C[N+]56CC[N+](CC#N)(CC5)CC6)cc3C4=O)C[C@H]12.[Cl-].[Cl-] | 474 nM
C[C@@H](O)[C@H]1C(=O)N2C(C(=O)O)=C(c3ccc4c(c3)-c3ccc(C[N+]56CC[N+](CC(=O)NCc7ccccc7)(CC5)CC6)cc3C4=O)[C@H](C)[C@H]12.[Cl-].[Cl-] | 1320 nM
C[C@@H](O)[C@H]1C(=O)N2C(C(=O)O)=C(c3ccc4c(c3)-c3ccc(C[N+]56CC[N+](C)(CC5)CC6)cc3C4=O)[C@H](C)[C@H]12.[Cl-].[Cl-] | 1230 nM
C[C@@H](O)[C@H]1C(=O)N2C(C(=O)O)=C(c3ccc4c(c3)-c3ccc(C[N+]56CC[N+](CC(=O)Nc7cccc(CO)c7)(CC5)CC6)cc3C4=O)[C@H](C)[C@H]12.[Cl-].[Cl-] | 1600 nM
C[C@@H](O)[C@H]1C(=O)N2C(C(=O)O)=C(c3ccc4c(c3)-c3ccc(C[N+]56CC[N+](C)(CC5)CC6)cc3C4=O)C[C@H]12.[Cl-].[Cl-] | 307 nM

system: Staphylococcus aureus; test: Antibacterial activity against methicillin-resistant Staphylococcus aureus (MRSA); type: functional

Structure (SMILES) | MIC50 | MIC90
CC(=O)c1cccc(NC(=O)C[N+]23CC[N+](Cc4ccc5c(c4)C(=O)c4ccc(C6=C(C(=O)O)N7C(=O)[C@H]([C@@H](C)O)[C@H]7[C@H]6C)cc4-5)(CC2)CC3)c1.[Cl-].[Cl-] | 1 µg/mL | 2 µg/mL
C[C@@H](O)[C@H]1C(=O)N2C(C(=O)O)=C(c3ccc4c(c3)-c3ccc(C[N+]56CC[N+](CC(=O)Nc7ccccc7)(CC5)CC6)cc3C4=O)C[C@H]12.[Cl-].[Cl-] | 0.5 µg/mL | 2 µg/mL
COc1ccc(NC(=O)C[N+]23CC[N+](Cc4ccc5c(c4)C(=O)c4ccc(C6=C(C(=O)O)N7C(=O)[C@H]([C@@H](C)O)[C@H]7[C@H]6C)cc4-5)(CC2)CC3)cc1.[Cl-].[Cl-] | 1 µg/mL | 1 µg/mL
C[C@@H](O)[C@H]1C(=O)N2C(C(=O)O)=C(c3ccc4c(c3)-c3ccc(C[N+]56CC[N+](CCCO)(CC5)CC6)cc3C4=O)[C@H](C)[C@H]12.[Cl-].[Cl-] | 2 µg/mL | 4 µg/mL
CNC(=O)C[N+]12CC[N+](Cc3ccc4c(c3)C(=O)c3ccc(C5=C(C(=O)O)N6C(=O)[C@H]([C@@H](C)O)[C@H]6[C@H]5C)cc3-4)(CC1)CC2.[Cl-].[Cl-] | 4 µg/mL | 8 µg/mL
CC(=O)c1ccc(NC(=O)C[N+]23CC[N+](Cc4ccc5c(c4)C(=O)c4ccc(C6=C(C(=O)O)N7C(=O)[C@H]([C@@H](C)O)[C@H]7[C@H]6C)cc4-5)(CC2)CC3)cc1.[Cl-].[Cl-] | 0.5 µg/mL | 1 µg/mL
C[C@@H](O)[C@H]1C(=O)N2C(C(=O)O)=C(c3ccc4c(c3)-c3ccc(C[N+]56CC[N+](CC(=O)Nc7cccc(C(N)=O)c7)(CC5)CC6)cc3C4=O)[C@H](C)[C@H]12.[Cl-].[Cl-] | 1 µg/mL | 1 µg/mL
C[C@@H](O)[C@H]1C(=O)N2C(C(=O)O)=C(c3ccc4c(c3)-c3ccc(C[N+]56CC[N+](CC#N)(CC5)CC6)cc3C4=O)C[C@H]12.[Cl-].[Cl-] | 2 µg/mL | 4 µg/mL
C[C@@H](O)[C@H]1C(=O)N2C(C(=O)O)=C(c3ccc4c(c3)-c3ccc(C[N+]56CC[N+](CC(=O)NCc7ccccc7)(CC5)CC6)cc3C4=O)[C@H](C)[C@H]12.[Cl-].[Cl-] | 1 µg/mL | 2 µg/mL
C[C@@H](O)[C@H]1C(=O)N2C(C(=O)O)=C(c3ccc4c(c3)-c3ccc(C[N+]56CC[N+](C)(CC5)CC6)cc3C4=O)[C@H](C)[C@H]12.[Cl-].[Cl-] | 2 µg/mL | 4 µg/mL
C[C@@H](O)[C@H]1C(=O)N2C(C(=O)O)=C(c3ccc4c(c3)-c3ccc(C[N+]56CC[N+](CC(=O)Nc7cccc(CO)c7)(CC5)CC6)cc3C4=O)[C@H](C)[C@H]12.[Cl-].[Cl-] | 1 µg/mL | 2 µg/mL
C[C@@H](O)[C@H]1C(=O)N2C(C(=O)O)=C(c3ccc4c(c3)-c3ccc(C[N+]56CC[N+](C)(CC5)CC6)cc3C4=O)C[C@H]12.[Cl-].[Cl-] | 2 µg/mL | 8 µg/mL
